Test results from patent US6914045B2, “Glycopeptide antibiotics” (Wyeth Holdings Corporation, priority 2001, dated 2005).
≈ marks a conversion by molar mass, not a printed value.

Legend:
Test in all cases: in vitro antibacterial evaluation, MIC by broth dilution
Format in all cases: cell-based
Enterococcus sp. = conditions: broth dilution, 18 hours at 35° C.
How it was run: (§1)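 Step 1: dilute antibiotic across 64-0.06 μg/mL in Muller-Hinton II […]. Step 2: inoculate at 5×10^5 CFU/mL.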

Streptococcus sp. = conditions: broth dilution, 18 hours at 35° C.
How it was run: as §1

Staphylococcus sp. = conditions: broth dilution, 18 hours at 35° C.
How it was run: as §1

Escherichia coli = conditions: 18 hours at 35° C.

MIC Enterococcus avium (GC 4558) (Enterococcus sp.): 16 µg/mL (≈ 11.3 µM)
MIC Enterococcus faecalis (ATCC 29212) (Enterococcus sp.): 16 µg/mL (≈ 11.3 µM)
MIC Enterococcus faecalis (GC 2242) (Enterococcus sp.): 16 µg/mL (≈ 11.3 µM)
MIC Enterococcus faecalis (GC 2691) (Enterococcus sp.): 16 µg/mL (≈ 11.3 µM)
MIC Enterococcus faecalis (GC 3059) (Enterococcus sp.): 16 µg/mL (≈ 11.3 µM)
MIC Enterococcus faecalis (GC 4552) (Enterococcus sp.): 16 µg/mL (≈ 11.3 µM)
MIC Enterococcus faecalis (GC 4553) (Enterococcus sp.): 16 µg/mL (≈ 11.3 µM)
MIC Enterococcus faecalis (GC 4554) (Enterococcus sp.): 16 µg/mL (≈ 11.3 µM)
MIC Enterococcus faecalis (GC 6189) (Enterococcus sp.): 16 µg/mL (≈ 11.3 µM)
MIC Enterococcus faecium (GC 2243) (Enterococcus sp.): 16 µg/mL (≈ 11.3 µM)
MIC Enterococcus faecium (GC 4556) (Enterococcus sp.): 16 µg/mL (≈ 11.3 µM)
MIC Enterococcus faecium (GC 4557) (Enterococcus sp.): 8 µg/mL (≈ 5.67 µM)
MIC Enterococcus faecalis (ATCC 29212) (Enterococcus sp.; strain ATCC 29212): 16 µg/mL (≈ 11.3 µM)
MIC Enterococcus faecium (GC 2243) (Enterococcus sp.; strain GC 2243): 16 µg/mL (≈ 11.3 µM)
MIC Enterococcus faecalis (GC 4552) (Enterococcus sp.; strain GC 4552): 16 µg/mL (≈ 11.3 µM)
MIC Enterococcus faecalis (GC 4553) (Enterococcus sp.; strain GC 4553): 16 µg/mL (≈ 11.3 µM)
MIC Enterococcus faecalis (GC 4554) (Enterococcus sp.; strain GC 4554): 16 µg/mL (≈ 11.3 µM)
MIC Enterococcus faecium (GC 4556) (Enterococcus sp.; strain GC 4556): 16 µg/mL (≈ 11.3 µM)
MIC Enterococcus faecium (GC 4557) (Enterococcus sp.; strain GC 4557): 8 µg/mL (≈ 5.67 µM)
MIC Enterococcus avium (GC 4558) (Enterococcus sp.; strain GC 4558): 16 µg/mL (≈ 11.3 µM)
MIC Enterococcus faecalis (GC 6189) (Enterococcus sp.; strain GC 6189): 16 µg/mL (≈ 11.3 µM)
MIC Enterococcus faecalis (GC 2242) (Enterococcus sp.; inoculum 5×10^5 CFU/mL, strain GC 2242): 16 µg/mL (≈ 11.3 µM)
MIC Enterococcus faecalis (GC 2691) (Enterococcus sp.; inoculum 5×10^5 CFU/mL, strain GC 2691): 16 µg/mL (≈ 11.3 µM)
MIC Enterococcus faecalis (GC 3059) (Enterococcus sp.; inoculum 5×10^5 CFU/mL, strain GC 3059): 16 µg/mL (≈ 11.3 µM)
MIC Streptococcus agalactiae (GC 4564) (Streptococcus sp.): 2 µg/mL (≈ 1.42 µM)
MIC Streptococcus pneumoniae (ATCC 6301) (Streptococcus sp.): 1 µg/mL (≈ 0.708 µM)
MIC Streptococcus pneumoniae (GC 1894) (Streptococcus sp.): 0.5 µg/mL (≈ 0.354 µM)
MIC Streptococcus pneumoniae (GC 4565) (Streptococcus sp.): 0.5 µg/mL (≈ 0.354 µM)
MIC Streptococcus pyogenes (GC 4563) (Streptococcus sp.): 2 µg/mL (≈ 1.42 µM)
MIC Streptococcus pneumoniae (ATCC 6301) (Streptococcus sp.; inoculum 5×10^5 CFU/mL, strain ATCC 6301): 1 µg/mL (≈ 0.708 µM)
MIC Streptococcus pneumoniae (GC 1894) (Streptococcus sp.; inoculum 5×10^5 CFU/mL, strain GC 1894): 0.5 µg/mL (≈ 0.354 µM)
MIC Streptococcus pyogenes (GC 4563) (Streptococcus sp.; inoculum 5×10^5 CFU/mL, strain GC 4563): 2 µg/mL (≈ 1.42 µM)
MIC Streptococcus agalactiae (GC 4564) (Streptococcus sp.; inoculum 5×10^5 CFU/mL, strain GC 4564): 2 µg/mL (≈ 1.42 µM)
MIC Streptococcus pneumoniae (GC 4565) (Streptococcus sp.; inoculum 5×10^5 CFU/mL, strain GC 4565): 0.5 µg/mL (≈ 0.354 µM)
MIC Coagulase Negative Staphylococcus (GC 4547) (Staphylococcus sp.): 8 µg/mL (≈ 5.67 µM)
MIC Coagulase Negative Staphylococcus (GC 4548) (Staphylococcus sp.): 4 µg/mL (≈ 2.83 µM)
MIC Coagulase Negative Staphylococcus (GC 4549) (Staphylococcus sp.): 4 µg/mL (≈ 2.83 µM)
MIC Coagulase Negative Staphylococcus (GC 4551) (Staphylococcus sp.): 16 µg/mL (≈ 11.3 µM)
MIC Coagulase Negative Staphylococcus (GC 6257) (Staphylococcus sp.): 2 µg/mL (≈ 1.42 µM)
MIC Staphylococcus aureus (ATCC 29213) (Staphylococcus sp.): 8 µg/mL (≈ 5.67 µM)
MIC Staphylococcus aureus (GC 1131) (Staphylococcus sp.): 8 µg/mL (≈ 5.67 µM)
MIC Staphylococcus aureus (GC 3051) (Staphylococcus sp.): 8 µg/mL (≈ 5.67 µM)
MIC Staphylococcus aureus (GC 3053) (Staphylococcus sp.): 8 µg/mL (≈ 5.67 µM)
MIC Staphylococcus aureus (GC 4541) (Staphylococcus sp.): 4 µg/mL (≈ 2.83 µM)
MIC Staphylococcus aureus (GC 4542) (Staphylococcus sp.): 4 µg/mL (≈ 2.83 µM)
MIC Staphylococcus aureus (GC 4544) (Staphylococcus sp.): 8 µg/mL (≈ 5.67 µM)
MIC Staphylococcus aureus (GC 4545) (Staphylococcus sp.): 4 µg/mL (≈ 2.83 µM)
MIC Staphylococcus aureus-SMITH (GC 4543) (Staphylococcus sp.): 8 µg/mL (≈ 5.67 µM)
MIC Staphylococcus aureus (ATCC 29213) (Staphylococcus sp.; strain ATCC 29213): 8 µg/mL (≈ 5.67 µM)
MIC Staphylococcus aureus (GC 1131) (Staphylococcus sp.; strain GC 1131): 8 µg/mL (≈ 5.67 µM)
MIC Staphylococcus aureus (GC 3051) (Staphylococcus sp.; strain GC 3051): 8 µg/mL (≈ 5.67 µM)
MIC Staphylococcus aureus (GC 3053) (Staphylococcus sp.; strain GC 3053): 8 µg/mL (≈ 5.67 µM)
MIC Staphylococcus aureus (GC 4541) (Staphylococcus sp.; strain GC 4541): 4 µg/mL (≈ 2.83 µM)
MIC Staphylococcus aureus (GC 4542) (Staphylococcus sp.; strain GC 4542): 4 µg/mL (≈ 2.83 µM)
MIC Staphylococcus aureus-SMITH (GC 4543) (Staphylococcus sp.; strain GC 4543): 8 µg/mL (≈ 5.67 µM)
MIC Staphylococcus aureus (GC 4544) (Staphylococcus sp.; strain GC 4544): 8 µg/mL (≈ 5.67 µM)
MIC Staphylococcus aureus (GC 4545) (Staphylococcus sp.; strain GC 4545): 4 µg/mL (≈ 2.83 µM)
MIC Coagulase Negative Staphylococcus (GC 4547) (Staphylococcus sp.; strain GC 4547): 8 µg/mL (≈ 5.67 µM)
MIC Coagulase Negative Staphylococcus (GC 4548) (Staphylococcus sp.; strain GC 4548): 4 µg/mL (≈ 2.83 µM)
MIC Coagulase Negative Staphylococcus (GC 4549) (Staphylococcus sp.; strain GC 4549): 4 µg/mL (≈ 2.83 µM)
MIC Coagulase Negative Staphylococcus (GC 4551) (Staphylococcus sp.; strain GC 4551): 16 µg/mL (≈ 11.3 µM)
MIC Coagulase Negative Staphylococcus (GC 6257) (Staphylococcus sp.; strain GC 6257): 2 µg/mL (≈ 1.42 µM)
MIC Escherichia coli (ATCC 25922) (Escherichia coli): >64 µg/mL
MIC Escherichia coli (GC 4559) (Escherichia coli): >64 µg/mL
MIC Escherichia coli (GC 4560) (Escherichia coli): 2 µg/mL (≈ 1.42 µM)
Compound: CC(c1ccccc1)C1NC(=O)CNC(=O)C(CO)NC(=O)C(C(O)C2CNC(=N)N2C2OC(CO)C(O)C(O)C2O)NC(=O)C(C(O)C2CNC(=N)N2)NC(=O)C(Cc2ccc(OC3OC(CO)C(OC4OC(COCC=Cc5ccccc5)C(O)C(O)C4O)C(O)C3O)cc2)NC1=O (stereo not shown) [Example 242]
MIC Staphylococcus haemolyticus (GC 4546) (Staphylococcus sp.): 4 µg/mL (≈ 2.83 µM)
MIC Staphylococcus haemolyticus (GC 4546) (Staphylococcus sp.; strain GC 4546): 4 µg/mL (≈ 2.83 µM)
